Results: ChEMBL document CHEMBL1255475, “Mutant prevention concentrations of four carbapenems against gram-negative rods” (2010)
Converted amounts (≈) assume the structure as drawn.

How the values were obtained:
[1] = test system: Pseudomonas aeruginosa; test: Ratio of mutant prevention concentration to minimum Inhibitory concentration for Pseudomonas aeruginosa P337; type: functional
[2] = test system: Pseudomonas aeruginosa; test: Ratio of mutant prevention concentration to minimum Inhibitory concentration for Pseudomonas aeruginosa P323; type: functional
[3] = test system: Pseudomonas aeruginosa; test: Ratio of mutant prevention concentration to minimum Inhibitory concentration for Pseudomonas aeruginosa P370; type: functional
[4] = test system: Pseudomonas aeruginosa; test: Ratio of mutant prevention concentration to minimum Inhibitory concentration for Pseudomonas aeruginosa P373; type: functional
[5] = test system: Acinetobacter baumannii; test: Ratio of mutant prevention concentration to minimum Inhibitory concentration for Acinetobacter baumannii A911; type: functional
[6] = test system: Acinetobacter baumannii; test: Ratio of mutant prevention concentration to minimum Inhibitory concentration for Acinetobacter baumannii A892; type: functional
[7] = test system: Pseudomonas aeruginosa; test: Ratio of mutant prevention concentration to minimum Inhibitory concentration for Pseudomonas aeruginosa P328; type: functional
[8] = test system: Pseudomonas aeruginosa; test: Ratio of mutant prevention concentration to minimum Inhibitory concentration for Pseudomonas aeruginosa P340; type: functional
[9] = test system: Pseudomonas aeruginosa; test: Ratio of mutant prevention concentration to minimum Inhibitory concentration for Pseudomonas aeruginosa P369; type: functional
[10] = test system: Acinetobacter baumannii; test: Ratio of mutant prevention concentration to minimum Inhibitory concentration for Acinetobacter baumannii A885; type: functional
[11] = test system: Pseudomonas aeruginosa; test: Ratio of mutant prevention concentration to minimum Inhibitory concentration for Pseudomonas aeruginosa P352; type: functional
[12] = test system: Pseudomonas aeruginosa; test: Ratio of mutant prevention concentration to minimum Inhibitory concentration for Pseudomonas aeruginosa P334; type: functional
[13] = test system: Acinetobacter baumannii; test: Ratio of mutant prevention concentration to minimum Inhibitory concentration for Acinetobacter baumannii A898; type: functional
[14] = test system: Acinetobacter baumannii; test: Ratio of mutant prevention concentration to minimum Inhibitory concentration for Acinetobacter baumannii A928; type: functional
[15] = test system: Pseudomonas aeruginosa; test: Ratio of mutant prevention concentration to minimum Inhibitory concentration for Pseudomonas aeruginosa P322; type: functional
[16] = test system: Acinetobacter baumannii; test: Ratio of mutant prevention concentration to minimum Inhibitory concentration for Acinetobacter baumannii A929; type: functional
[17] = test system: Pseudomonas aeruginosa; test: Ratio of mutant prevention concentration to minimum Inhibitory concentration for Pseudomonas aeruginosa P363; type: functional
[18] = test system: Acinetobacter baumannii; test: Ratio of mutant prevention concentration to minimum Inhibitory concentration for Acinetobacter baumannii A931; type: functional
[19] = test system: Pseudomonas aeruginosa; test: Ratio of mutant prevention concentration to minimum Inhibitory concentration for Pseudomonas aeruginosa P327; type: functional
[20] = test system: Pseudomonas aeruginosa; test: Antibacterial activity against Pseudomonas aeruginosa P326 after 24 hrs by agar dilution method; details: P326, 24 h
[21] = test system: Acinetobacter baumannii; test: Antibacterial activity against Acinetobacter baumannii A849 after 24 hrs by agar dilution method; type: functional; details: A849, 24 h
[22] = test system: Klebsiella pneumoniae; test: Antibacterial activity against beta-lactamase-positive ESBL-negative Klebsiella pneumoniae E511 after 24 hrs by agar dilution method; type: functional; details: E511, 24 h
[23] = test system: Klebsiella pneumoniae; test: Antibacterial activity against beta-lactamase-positive ESBL-negative Klebsiella pneumoniae E480 after 24 hrs by agar dilution method; type: functional; details: E480, 24 h
[24] = test system: Acinetobacter baumannii; test: Antibacterial activity against Acinetobacter baumannii A892 after 24 hrs by agar dilution method; type: functional; details: A892, 24 h
[25] = test system: Pseudomonas aeruginosa; test: Antibacterial activity against Pseudomonas aeruginosa P328 after 24 hrs by agar dilution method; type: functional; details: P328, 24 h
[26] = test system: Klebsiella pneumoniae; test: Antibacterial activity against beta-lactamase-positive ESBL-positive Klebsiella pneumoniae E475 after 24 hrs by agar dilution method; type: functional; details: E475, 24 h
[27] = test system: Pseudomonas aeruginosa; test: Antibacterial activity against Pseudomonas aeruginosa P356 after 24 hrs by agar dilution method; details: P356, 24 h
[28] = test system: Escherichia coli; test: Antibacterial activity against beta-lactamase-negative Escherichia coli E346 after 24 hrs by agar dilution method; details: E346, 24 h
[29] = test system: Acinetobacter baumannii; test: Antibacterial activity against Acinetobacter baumannii A910 after 24 hrs by agar dilution method; type: functional; details: A910, 24 h
[30] = test system: Escherichia coli; test: Antibacterial activity against beta-lactamase-negative Escherichia coli E409 after 24 hrs by agar dilution method; details: E409, 24 h
[31] = test system: Pseudomonas aeruginosa; test: Antibacterial activity against Pseudomonas aeruginosa P334 after 24 hrs by agar dilution method; details: P334, 24 h
[32] = test system: Acinetobacter baumannii; test: Antibacterial activity against Acinetobacter baumannii A884 after 24 hrs by agar dilution method; type: functional; details: A884, 24 h
[33] = test system: Klebsiella pneumoniae; test: Antibacterial activity against beta-lactamase-negative Klebsiella pneumoniae E358 after 24 hrs by agar dilution method; type: functional; details: E358, 24 h
[34] = test system: Pseudomonas aeruginosa; test: Antibacterial activity against Pseudomonas aeruginosa P370 after 24 hrs by agar dilution method; details: P370, 24 h
[35] = test system: Klebsiella pneumoniae; test: Antibacterial activity against beta-lactamase-negative Klebsiella pneumoniae E360 after 24 hrs by agar dilution method; type: functional; details: E360, 24 h
[36] = test system: Escherichia coli; test: Antibacterial activity against beta-lactamase-positive ESBL-positive Escherichia coli E460 after 24 hrs by agar dilution method; details: E460, 24 h
[37] = test system: Pseudomonas aeruginosa; test: Antibacterial activity against Pseudomonas aeruginosa P376 after 24 hrs by agar dilution method; details: P376, 24 h
[38] = test system: Escherichia coli; test: Antibacterial activity against beta-lactamase-positive ESBL-negative Escherichia coli E430 after 24 hrs by agar dilution method; details: E430, 24 h
[39] = test system: Klebsiella pneumoniae; test: Antibacterial activity against beta-lactamase-negative Klebsiella pneumoniae E359 after 24 hrs by agar dilution method; type: functional; details: E359, 24 h
[40] = test system: Pseudomonas aeruginosa; test: Antibacterial activity against Pseudomonas aeruginosa P349 after 24 hrs by agar dilution method; details: P349, 24 h
[41] = test system: Klebsiella pneumoniae; test: Antibacterial activity against beta-lactamase-positive ESBL-positive Klebsiella pneumoniae E476 after 24 hrs by agar dilution method; type: functional; details: E476, 24 h
[42] = test system: Escherichia coli; test: Antibacterial activity against beta-lactamase-positive ESBL-positive Escherichia coli E451 after 24 hrs by agar dilution method; details: E451, 24 h
[43] = test system: Escherichia coli; test: Antibacterial activity against beta-lactamase-positive ESBL-negative Escherichia coli E437 after 24 hrs by agar dilution method; details: E437, 24 h
[44] = test system: Acinetobacter baumannii; test: Antibacterial activity against Acinetobacter baumannii A894 after 24 hrs by agar dilution method; type: functional; details: A894, 24 h
[45] = test system: Acinetobacter baumannii; test: Antibacterial activity against Acinetobacter baumannii A898 after 24 hrs by agar dilution method; type: functional; details: A898, 24 h
[46] = test system: Escherichia coli; test: Antibacterial activity against beta-lactamase-positive ESBL-negative Escherichia coli E415 after 24 hrs by agar dilution method; details: E415, 24 h
[47] = test system: Pseudomonas aeruginosa; test: Antibacterial activity against Pseudomonas aeruginosa P363 after 24 hrs by agar dilution method; details: P363, 24 h
[48] = test system: Escherichia coli; test: Antibacterial activity against beta-lactamase-positive ESBL-positive Escherichia coli E465 after 24 hrs by agar dilution method; details: E465, 24 h
[49] = test system: Acinetobacter baumannii; test: Antibacterial activity against Acinetobacter baumannii A885 after 24 hrs by agar dilution method; type: functional; details: A885, 24 h
[50] = test system: Pseudomonas aeruginosa; test: Antibacterial activity against Pseudomonas aeruginosa P337 after 24 hrs by agar dilution method; details: P337, 24 h
[51] = test system: Klebsiella pneumoniae; test: Antibacterial activity against beta-lactamase-positive ESBL-negative Klebsiella pneumoniae E481 after 24 hrs by agar dilution method; type: functional; details: E481, 24 h
[52] = test system: Escherichia coli; test: Antibacterial activity against beta-lactamase-positive ESBL-positive Escherichia coli E450 after 24 hrs by agar dilution method; details: E450, 24 h
[53] = test system: Pseudomonas aeruginosa; test: Antibacterial activity against Pseudomonas aeruginosa P369 after 24 hrs by agar dilution method; details: P369, 24 h
[54] = test system: Klebsiella pneumoniae; test: Antibacterial activity against beta-lactamase-negative Klebsiella pneumoniae E419 after 24 hrs by agar dilution method; type: functional; details: E419, 24 h

C[C@@H](O)[C@H]1C(=O)N2C(C(=O)O)=C(S[C@@H]3CN[C@H](CNS(N)(=O)=O)C3)[C@H](C)[C@H]12 [DORIPENEM]
Ratio [1]: 8
Ratio [2]: 8
Ratio [3]: 16
Ratio [4]: >8
Ratio [5]: 2
Ratio [6]: 16
Ratio [7]: 2
Ratio [8]: 8
Ratio [9]: 8
Ratio [10]: 2
Ratio [11]: 2
Ratio [12]: >16
Ratio [13]: 2
Ratio [14]: 2
Ratio [15]: 8
Ratio [16]: 2
Ratio [17]: 16
Ratio [18]: 2
Ratio [19]: 16

C[C@@H](O)[C@H]1C(=O)N2C(C(=O)O)=C(SCCNC=N)C[C@H]12 [IMIPENEM ANHYDROUS]
MIC [20]: 16 µg/mL (≈ 53.4 µM)
MIC [21]: 4 µg/mL (≈ 13.4 µM)
MIC [22]: 2 µg/mL (≈ 6.68 µM)
MIC [23]: 2 µg/mL (≈ 6.68 µM)
MIC [24]: 4 µg/mL (≈ 13.4 µM)
MIC [25]: 8 µg/mL (≈ 26.7 µM)
MIC [26]: 4 µg/mL (≈ 13.4 µM)
MIC [27]: 2 µg/mL (≈ 6.68 µM)
MIC [28]: 0.125 µg/mL (≈ 0.418 µM)
MIC [29]: 0.5 µg/mL (≈ 1.67 µM)
MIC [30]: 0.25 µg/mL (≈ 0.835 µM)
MIC [31]: 1 µg/mL (≈ 3.34 µM)
MIC [32]: 1 µg/mL (≈ 3.34 µM)
MIC [33]: 0.25 µg/mL (≈ 0.835 µM)
MIC [34]: 1 µg/mL (≈ 3.34 µM)
MIC [35]: 0.25 µg/mL (≈ 0.835 µM)
MIC [36]: 0.25 µg/mL (≈ 0.835 µM)
MIC [37]: 4 µg/mL (≈ 13.4 µM)
MIC [38]: 0.5 µg/mL (≈ 1.67 µM)
MIC [39]: 0.5 µg/mL (≈ 1.67 µM)
MIC [40]: 2 µg/mL (≈ 6.68 µM)
MIC [41]: 8 µg/mL (≈ 26.7 µM)
MIC [42]: 0.25 µg/mL (≈ 0.835 µM)
MIC [43]: 0.25 µg/mL (≈ 0.835 µM)
MIC [44]: 0.5 µg/mL (≈ 1.67 µM)
MIC [45]: 1 µg/mL (≈ 3.34 µM)
MIC [46]: 0.125 µg/mL (≈ 0.418 µM)
MIC [47]: 2 µg/mL (≈ 6.68 µM)
MIC [48]: 0.25 µg/mL (≈ 0.835 µM)
MIC [49]: 2 µg/mL (≈ 6.68 µM)
MIC [50]: 2 µg/mL (≈ 6.68 µM)
MIC [51]: 4 µg/mL (≈ 13.4 µM)
MIC [52]: 0.125 µg/mL (≈ 0.418 µM)
MIC [53]: 2 µg/mL (≈ 6.68 µM)
MIC [54]: 0.5 µg/mL (≈ 1.67 µM)
